Laboratory results from US10441663B2, “Methods for treating cancer” (Bicycle Therapeutics Limited, priority 2016, dated 2019).
*1 amine or outer side, *2 acyl side, *3 side chain or, on linkers, in order; H or OH if unused. Where a SMILES comes first, the peptide text is derived from it. Bridges are numbered along the chain shown (N, C = ends). [ ]: non-standard residue; d: D form. The star is where a group is joined. X1 = COc1cc2cc(c1Cl)N(C)C(=O)C[C@H](OC(=O)[C@H](C)N(C)C(=O)CCSSC(C)CCC(=O)*)[C@]1(C)O[C@H]1[C@H](C)[C@@H]1C[C@@](O)(NC(=O)O1)[C@H](OC)/C=C/C=C(\C)C2; 1Nal = N[C@@H](Cc1cccc2ccccc12)C(=O)O; TBMB = c1c(C[*:1])cc(C[*:3])cc1C[*:2]; Tle = CC(C)(C)[C@H](N)C(=O)O; βAla = NCCC(=O)O; Sar = CNCC(=O)O

What was measured:
3LL syngeneic model = experiment: In vivo efficacy of BT1718 in 3LL syngeneic model (Example 9); set-up: species or system Mus Musculus
Experimental: The objective of this study was to evaluate the in vivo anti-tumor efficacy of BT1718 in the treatment of the subcutaneous 3LL syngeneic model in C57BL/6 mice.
The 3LL tumor cells were maintained in vitro as a monolayer culture in medium supplemented with 10% heat inactivated fetal bovine serum at 37° C. in an atmosphere of 5% CO2 in air. The tumor cells were routinely subcultured twice weekly by trypsin-EDTA treatment. The cells growing in an exponential growth phase were harvested and counted for tumor inoculation.
Each mouse was inoculated subcutaneously at the right flank with 3LL tumor cells (1×106) in 0.1 ml of PBS for tumor development. The animals were randomized and treatment was started when the average tumor volume reaches approximately 105 mm^3 for the efficacy study. The test article administration and the animal numbers in each group were shown in the experimental design table (Table 48).
All the procedures related to animal handling, care and the treatment in the study were performed according to the guidelines of the Association for Assessment and Accreditation of Laboratory Animal Care (AAALAC). At the time of routine monitoring, the animals were daily checked for any effects of tumor growth and treatments on normal behavior such as mobility, food and water consumption (by looking only), body weight gain/loss (body weights were measured every day), eye/hair matting and any other abnormal effect as stated in the protocol. Death and observed clinical signs were recorded on the basis of the numbers of animals within each subset.
The major endpoint was to see if the tumor growth could be delayed or mice could be cured. Tumor size was measured three times weekly in two dimensions using a caliper, and the volume was expressed in mm^3 using the formula: V=0.5 a×b2 where a and b are the long and short diameters of the tumor, respectively. The tumor size was then used for calculations of T/C value. The T/C value (in percent) is an indication of antitumor effectiveness; T and C are the mean volumes of the treated and control groups, respectively, on a given day.
TGI was calculated for each group using the formula: TGI (%)=[1−(Ti−T0)/(Vi−V0)]×100; Ti is the average tumor volume of a treatment group on a given day, T0 is the average tumor volume of the treatment group on the day of treatment start, Vi is the average tumor volume of the vehicle control group on the same day with Ti, and V0 is the average tumor volume of the vehicle group on the day of treatment start.
Summary statistics, including mean and the standard error of the mean (SEM), are provided for the tumor volume of each group at each time point.
Statistical analysis of difference in tumor volume among the groups was conducted on the data obtained at the best therapeutic time point after the final dose.
A one-way ANOVA was performed to compare tumor volume among groups, and when a significant F-statistics (a ratio of treatment variance to the error variance) was obtained, comparisons between groups were carried out with Games-Howell test. All data were analyzed using Prism. P<0.05 was considered to be statistically significant.

[1] = Preliminary metabolism studies; type: in vivo
Text: Efficacy in this model was reduced in the conjugates containing the least cleavable linkers.

**Q.** Which TGI (3LL syngeneic model; 1 mg/kg, day 14) does the source give for COc1cc2cc(c1Cl)N(C)C(=O)C[C@H](OC(=O)[C@H](C)N(C)C(=O)CCSSC(C)CCC(=O)NCCC(=O)N(C)CC(=O)N(C)CC(=O)N(C)CC(=O)N(C)CC(=O)N(C)CC(=O)N(C)CC(=O)N(C)CC(=O)N(C)CC(=O)N(C)CC(=O)N(C)CC(=O)N[C@@H](C)C(=O)N[C@H]1CSCc3cc4cc(c3)CSC[C@H](NC(=O)[C@@H](C)NC(=O)[C@H](Cc3cccc5ccccc35)NC(=O)[C@H](CCC(=O)O)NC(=O)[C@H](CC(N)=O)NC(=O)[C@@H](C)NC1=O)C(=O)N[C@@H](CCC(=O)O)C(=O)N[C@@H](CC(=O)O)C(=O)N[C@@H](Cc1ccccc1)C(=O)N[C@@H](Cc1ccc(O)cc1)C(=O)N[C@@H](CC(=O)O)C(=O)N[C@@H](C(C)(C)C)C(=O)N[C@H](C(N)=O)CSC4)[C@]1(C)O[C@H]1[C@H](C)[C@@H]1C[C@@](O)(NC(=O)O1)[C@H](OC)/C=C/C=C(\C)C2 (some centres unmarked) [BT1718] ({X1-βAla}-[Sar][Sar][Sar][Sar][Sar][Sar][Sar][Sar][Sar][Sar]AC[dA]NE[1Nal][dA]CEDFYD[Tle]C-NH2; linker 12-18-25 via TBMB (inferred)) here?
**A.** 104.9%

**Q.** And the Tumor Volume (3LL syngeneic model; 1 mg/kg, day 14)?
**A.** 2649 mm^3

**Q.** What about the TGI (3LL syngeneic model; 3 mg/kg, day 14) of the same compound?
**A.** 69.9%

**Q.** What about the Tumor Volume (3LL syngeneic model; 3 mg/kg, day 14) of the same compound?
**A.** 1764 mm^3

**Q.** And the TGI (3LL syngeneic model; 10 mg/kg, day 14)?
**A.** 89.9

**Q.** And the Tumor Volume (3LL syngeneic model; 10 mg/kg, day 14)?
**A.** 350 mm^3

**Q.** And the “tumor volume trace over time” value (3LL syngeneic model; 1 mpk biw, day 0)?
**A.** 106 ± 10 mm^3

**Q.** What about the “tumor volume trace over time” value (3LL syngeneic model; 1 mpk biw, day 2) of the same compound?
**A.** 239 ± 47 mm^3

**Q.** And the “tumor volume trace over time” value (3LL syngeneic model; 1 mpk biw, day 4)?
**A.** 405 ± 98 mm^3

**Q.** And the “tumor volume trace over time” value (3LL syngeneic model; 1 mpk biw, day 7)?
**A.** 765 ± 190 mm^3

**Q.** What about the “tumor volume trace over time” value (3LL syngeneic model; 1 mpk biw, day 9) of the same compound?
**A.** 1120 ± 267 mm^3

**Q.** And the “tumor volume trace over time” value (3LL syngeneic model; 1 mpk biw, day 11)?
**A.** 1568 ± 392 mm^3

**Q.** What about the T/C (3LL syngeneic model; 1 mpk biw, day 14) of the same compound?
**A.** 104.9%

**Q.** What about the TGI (3LL syngeneic model; 1 mpk biw, day 14) of the same compound?
**A.** −5.1%

**Q.** What about the “tumor volume trace over time” value (3LL syngeneic model; 1 mpk biw, day 14) of the same compound?
**A.** 2649 ± 553 mm^3

**Q.** What about the “Tumor Volume” value (3LL syngeneic model; 1 mpk, biw, day 14, Mean ± SEM) of the same compound?
**A.** 2649 ± 553 mm^3

**Q.** What about the “tumor volume trace over time” value (3LL syngeneic model; 3 mpk biw, day 0) of the same compound?
**A.** 105 ± 9 mm^3

**Q.** What about the “tumor volume trace over time” value (3LL syngeneic model; 3 mpk biw, day 2) of the same compound?
**A.** 234 ± 48 mm^3

**Q.** What about the “tumor volume trace over time” value (3LL syngeneic model; 3 mpk biw, day 4) of the same compound?
**A.** 423 ± 86 mm^3

**Q.** What about the “tumor volume trace over time” value (3LL syngeneic model; 3 mpk biw, day 7) of the same compound?
**A.** 706 ± 152 mm^3

**Q.** And the “tumor volume trace over time” value (3LL syngeneic model; 3 mpk biw, day 9)?
**A.** 991 ± 245 mm^3

**Q.** And the “tumor volume trace over time” value (3LL syngeneic model; 3 mpk biw, day 11)?
**A.** 1149 ± 313 mm^3

**Q.** And the T/C (3LL syngeneic model; 3 mpk biw, day 14)?
**A.** 69.9%

**Q.** What about the TGI (3LL syngeneic model; 3 mpk biw, day 14) of the same compound?
**A.** 31.4%

**Q.** And the “tumor volume trace over time” value (3LL syngeneic model; 3 mpk biw, day 14)?
**A.** 1764 ± 471 mm^3

**Q.** What about the “Tumor Volume” value (3LL syngeneic model; 3 mpk, biw, day 14, Mean ± SEM) of the same compound?
**A.** 1764 ± 471 mm^3

**Q.** And the “tumor volume trace over time” value (3LL syngeneic model; 10 mpk biw, day 0)?
**A.** 106 ± 8 mm^3

**Q.** What about the “tumor volume trace over time” value (3LL syngeneic model; 10 mpk biw, day 2) of the same compound?
**A.** 181 ± 21 mm^3

**Q.** What about the “tumor volume trace over time” value (3LL syngeneic model; 10 mpk biw, day 4) of the same compound?
**A.** 272 ± 38 mm^3

**Q.** And the “tumor volume trace over time” value (3LL syngeneic model; 10 mpk biw, day 7)?
**A.** 339 ± 86 mm^3

**Q.** What about the “tumor volume trace over time” value (3LL syngeneic model; 10 mpk biw, day 9) of the same compound?
**A.** 321 ± 85 mm^3

**Q.** And the “tumor volume trace over time” value (3LL syngeneic model; 10 mpk biw, day 11)?
**A.** 343 ± 92 mm^3

**Q.** And the T/C (3LL syngeneic model; 10 mpk biw, day 14)?
**A.** 13.8%

**Q.** What about the TGI (3LL syngeneic model; 10 mpk biw, day 14) of the same compound?
**A.** 89.9%

**Q.** And the “tumor volume trace over time” value (3LL syngeneic model; 10 mpk biw, day 14)?
**A.** 350 ± 105 mm^3

**Q.** And the “Tumor Volume” value (3LL syngeneic model; 10 mpk, biw, day 14, Mean ± SEM)?
**A.** 350 ± 105 mm^3

**Q.** And the body weight effect (3LL syngeneic model; all mice)?
**A.** maintained their bodyweight well

**Q.** What about the route of excretion [1] of the same compound?
**A.** excreted mainly through the kidney in urine
